# Reference: patent US7306938B2, “High throughput screen for inhibitors of fatty acid biosynthesis in bacteria” (priority 1999, dated 2007)
# Experiments:
# PylpC promoter = experiment: lacZ reporter assay of promoter induction, strain PY79(amy::PylpC::lacZ, cat); assay type: cell-based, B. subtilis; conditions: various concentrations, 96-well microplate, 3 hours (FIG. 8)
# From the text: (§1) Clones containing the PyhfB, PyjaXY, and PylpC promoters have been described in GenBank, and the accession numbers for these clones are set forth in Table 2.
# (§2) The reporter strains used in these assays were constructed as follows. PCR products containing the promoters were digested with EcoRI and BamHI, and cloned into the multiple cloning site of pDG268, which also had been digested with EcoRI and BamHI. The plasmid pDG268 is a derivative of pGD364 (See, Cutting and Van der Horn, Molecular Biological Methods for Bacillus, eds. C. R. Harwood and S. M. Cutting, 1990, John Wiley and Sons, NY, N.Y., pp. 52-54). […]
# (§3) The reporter strains were incubated, separately, with triclosan or cerulenin at various concentrations, as shown on the X-axes depicted in FIGS. 7 and 8. Each strain and an antibacterial agent were incubated in a 96-well microplate for 3 hours. β-galactosidase activity was detected using the Tropix Galacton Star™ chemiluminescent substrate (3-chloro-5-(4-methoxyspiro{1,2-dioxetane-3,2′-(4′chloro)-tricyclo-[3.3.1.1^3,7]decan}-4-yl)phenyl-B-D-galactopyranoside) and the detection method described below. The fold induction of promoter activity was calculated as the level of activity in the samples containing the antibacterial agent divided by the level of activity in the samples that lacked the agent. […]
# [1] = test system: B. subtilis reporter strains PY79(amy::PyhfB::lacZ, cat) and PY79(amy::PylpC::lacZ, cat); experiment: Minimum inhibitory concentration (MIC) determination in 96-well microtiter plate, OD600 read; assay type: cell-based; conditions: Bacillus subtilis, 18 h, read-out: minimum inhibitory concentration (MIC)
# Protocol: The minimum inhibitory concentrations (MIC) for cerulenin and triclosan were determined for each of the reporter strains. To determine the MIC, a compound of interest (e.g., cerulenin or triclosan) was placed in a 96-well microtiter plate such that the concentration of the compound varies in various wells of the plate (e.g., by using a series of 2-fold dilutions of the compound). Approximately 5,000 cells from a logarithmically-growing culture (e.g., the B. subtilis strain PY79) in Luria broth were added to each well (e.g., in a volume of 50-80 μl). The plate then was incubated at 37° C. for approximately 18 hours. The OD600 was then read to measure cell growth in each well of the plate. The lowest concentration of the compound that leads to complete killing of the culture (i.e., the concentration of compound for which the OD600 nm is equal to a control well that contains only media and the test compound) is deemed the MIC for the particular compound and bacterial strain. The MICs for cerulenin and triclosan were 12.5 μg/ml and 5 μg/ml, respectively, for both of the reporter strains. Such inhibitors can be used as lead compounds, which can subsequently be derivatized using standard medicinal chemistry techniques to produce antibacterial agents.
# [2] = test system: PyhfB, PyjaXY, PylpC, and PyydK promoters; experiment: RNA (transcriptional) profiling of bacterial cells treated with FAB pathway inhibitors; assay type: cell-based, B. subtilis; conditions: cerulenin 0.5 or 5 μg/ml, triclosan 0.1 or 1 μg/ml; LB medium, 37° C., 10, 30, or 60 minutes
# From the text: Genetic Constructs: Conventional transcriptional profiling methods can be used to identify promoters that have increased activity in the presence of antibacterial agents such as cerulenin and triclosan, which are inhibitors of FAB.
# PyhfB promoter = experiment: lacZ reporter assay of promoter induction, strain PY79(amy::PyhfB::lacZ, cat); assay type: cell-based, B. subtilis; conditions: various concentrations, 96-well microplate, 3 hours (FIG. 7)
# From the text: as §1, §2, §3
smiles,measurement,setting,value
"C/C=C/C/C=C/CCC(=O)[C@H]1O[C@H]1C(N)=O [cerulenin, 2,3-Epoxy-4-oxo-7,1-dodecadienamide]","activity of the PylpC promoter (lacZ reporter, β-galactosidase chemiluminescence)",PylpC promoter,increase the activity
same,MIC,[1],12.5 µg/mL
same,"activity of the PyhfB, PyjaXY, PylpC, and PyydK promoters (RNA profiling)",[2],increase in activity
same,"activity of the PyhfB promoter (lacZ reporter, β-galactosidase chemiluminescence)",PyhfB promoter,increase the activity
Oc1cc(Cl)ccc1Oc1ccc(Cl)cc1Cl [triclosan],"activity of the PylpC promoter (lacZ reporter, β-galactosidase chemiluminescence)",PylpC promoter,increase the activity
same,MIC,[1],5 µg/mL
same,"activity of the PyhfB, PyjaXY, PylpC, and PyydK promoters (RNA profiling)",[2],increase in activity
same,"activity of the PyhfB promoter (lacZ reporter, β-galactosidase chemiluminescence)",PyhfB promoter,increase the activity
